These results are taken from article PMC9551036, “A selective and orally bioavailable VHL-recruiting PROTAC achieves SMARCA2 degradation in vivo” (Nature Communications, 2022).

Assay [1] deals with VCB: PROTAC: SMARCA4^BD ternary complex (Homo sapiens, UniProt P40337+P51532). Put plainly: SPR ternary complex measurement, VCB immobilised, 10 µM SMARCA4^BD present. It is filed as binding. Also noted: P51532, residues 1448–1569 with additional N-terminal SM residues; His6 (TEV site) (N, cleaved yes); GST (TEV site) (N, cleaved yes); made in house; host or cells: SMARCA4^BD: Escherichia coli BL21(DE3). Particulars: for Kd: SPR; for alpha: cooperativity, SMARCA4, ratio of KD values measured in the same run. On the procedure:
(§1) SPR data were acquired on Biacore 8K or T200 instruments (Cytiva). Target proteins were immobilised at 25 °C on CM5 chips by amine coupling (EDC/NHS, Cytiva) in HBS-P+ running buffer (pH 7.4), containing 2 mM TCEP. […] The reference surface was subsequently deactivated using 1 M ethanolamine. […] Biotinylated VCB was prepared as previously described[27]: in brief, the complex was mixed 1:1 with EZ-Link NHS–PEG4–biotin (Thermo Scientific) and incubated at room temperature for 1 h. Unreacted NHS-biotin was removed using a PD-10 desalting column (Cytiva) into 20 mM HEPES, pH 7.5, 150 mM sodium chloride and 1 mM DTT. The reference surface was generated by deactivating the EDC/NHS-treated surface with 1 M ethanolamine. All interaction experiments were done at 6 °C in running buffer (20 mM TRIS, pH 8.3, 150 mM potassium chloride, 2 mM magnesium chloride, 2 mM TCEP, 0.005% TWEEN 20, 1% dimethyl sulfoxide). For ternary complex measurements, a sensor chip surface with VCB immobilised was used (preparation as described above). Experiments were run in dual-inject mode with 10 µM SMARCA present during the injection and dissociation phase. Sensorgrams from reference surfaces and blank injections were subtracted from the raw data prior to data analysis using Biacore Insight software. Affinity and binding kinetic parameters were determined by global fitting using the 1:1 interaction model with a term for mass-transport included.

The next assay concerns the target T1, SMARCA2^BD (Homo sapiens, UniProt P51531).
T1 construct: P51531-2, residues 1373-1493 with additional N-terminal SM residues; GST (TEV site) (N, cleaved yes); made in house; host or cells: Escherichia coli BL21(DE3)
Put plainly: SPR binding to immobilised SMARCA2 bromodomain. The note with it: SPR, read-out: SMARCA2 KD. On the procedure:
(§2) SMARCA4^BD was provided by the Structural Genomics Consortium (SGC), Toronto[32] and SMARCA2^BD and PRM1^BD5 were synthesised by GeneArt then subcloned into pDEST15 vectors (Invitrogen). The VCB complex was expressed and purified as described previously, with the modification that 0.3 mM IPTG was used for induction of expression. […] Both were stored in 20 mM 4-(2-hydroxyethyl)−1-piperazineethanesulfonic acid (HEPES), 150 mM sodium chloride and 1 mM tris(2-carboxyethyl)phosphine (TCEP) pH 7.5. SMARCA2^BD, SMARCA4^BD and PBRM1^BD5 were expressed in Escherichia coli BL21(DE3) as N-terminal GST fusion proteins with a TEV protease cleavage site. Expression and purification of these proteins has been described previously[32],[33]. Starter cultures were grown overnight at 37 °C in 10 mL of Luria-Bertani (LB) medium with ampicillin (100 μg/mL). The starter cultures were diluted (1:100) in Terrific Broth (TB) medium with ampicillin (100 μg/mL) and grown in a shaking incubator at 37 °C to an optical density (OD600) ~1 before the temperature was lowered for induction (to 23 °C for SMARCA2^BD or 18 °C for SMARCA4^BD and PRRM1^BD5). […] Cells were harvested by centrifugation and stored at −80 °C prior to purification. […] The Lysis buffers were as follows: for SMARCA2^BD: 50 mM HEPES, 500 mM sodium chloride, 5% glycerol, 5 mM dithiothreitol (DTT); for SMARCA4^BD: 25 mM HEPES, 0.3 M sodium chloride, 5% glycerol, 10 mM DTT, pH 7.5; for PBRM1^BD5: 25 mM HEPES, 300 mM sodium chloride, 5% glycerol, 10 mM DTT, pH 7.8; in each case supplemented with complete protease inhibitors (Roche). Affinity purification was performed using Glutathione Sepharose 4B (GE Healthcare) in batch mode or on-column. […] For SMARCA2^BD, prior to TEV protease cleavage the eluted GST-tagged BD was first dialysed into desalting buffer (20 mM HEPES, 250 mM sodium chloride, pH 7.0 + 0.5% glycerol). Where TEV cleavage was performed in solution, a second affinity (GST-trap) column purification step was carried out to remove the GST-tag and uncleaved GST-tagged protein. Proteins were further purified by SEC (HiLoad Superdex-75, 16/600) (GE Healthcare) and stored in Storage buffer (for SMARCA2^BD: 20 mM HEPES, 150 mM sodium chloride, pH 7.5; for SMARCA4^BD: 10 mM HEPES, 0.5 M NaCl, 5% glycerol, pH 7.5; for PBRM1^BD5: 20 mM HEPES, 300 mM NaCl, 5 mM DTT, pH 7.8). For AlphaScreen assays, eluted GST-tagged BDs were purified directly by SEC in the respective storage buffers without TEV cleavage. All chromatography purification steps were performed either at room temperature or 4 °C using an ÄKTA FPLC purification system (GE Healthcare) or a plastic Econo-Pac column (Bio-Rad).
as §1, with “software.” for “software. Affinity and binding kinetic parameters were determined by global fitting using the 1:1 interaction model with a term for mass-transport included.”

In a further assay the target is T2, VCB complex (Homo sapiens, UniProt P40337).
T2 construct: His6 (TEV site) (N, cleaved yes); made in house
Put plainly: SPR binary binding to immobilised VCB complex. On the procedure:
as §2
as §1, with “software.” for “software. Affinity and binding kinetic parameters were determined by global fitting using the 1:1 interaction model with a term for mass-transport included.”

[2] abbreviates: ternary complex with SMARCA4BD, mean ± SD.
Where [3] appears, read: binary binding to VCB, mean ± SD.

Values joined by “and” are separate entries in the source; they are usually repeats but may differ in a detail not shown here. Equal values may be shown once. Read-outs that look alike come from different tables or passages of the source.

T1 sequence (P51531 1373-1493 isoform P51531-2): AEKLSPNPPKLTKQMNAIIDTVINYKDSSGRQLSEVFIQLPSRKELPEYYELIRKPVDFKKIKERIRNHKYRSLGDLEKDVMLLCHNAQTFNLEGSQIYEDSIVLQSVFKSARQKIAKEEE
VCB: PROTAC: SMARCA4^BD ternary complex, sequence (P40337 54-213): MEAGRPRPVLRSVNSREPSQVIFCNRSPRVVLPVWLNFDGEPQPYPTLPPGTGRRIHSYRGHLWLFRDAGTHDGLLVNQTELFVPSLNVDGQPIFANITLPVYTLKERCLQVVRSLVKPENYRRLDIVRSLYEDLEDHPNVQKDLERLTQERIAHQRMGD
VCB: PROTAC: SMARCA4^BD ternary complex, sequence (Q15369 17-112 partner limits assumed): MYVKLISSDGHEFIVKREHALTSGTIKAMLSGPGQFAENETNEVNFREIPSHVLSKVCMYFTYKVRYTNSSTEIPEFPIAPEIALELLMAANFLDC
VCB: PROTAC: SMARCA4^BD ternary complex, sequence (Q15370 1-104 partner limits assumed): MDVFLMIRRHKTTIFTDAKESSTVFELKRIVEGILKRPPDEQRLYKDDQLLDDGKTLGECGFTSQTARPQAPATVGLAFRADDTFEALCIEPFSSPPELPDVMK
VCB: PROTAC: SMARCA4^BD ternary complex, sequence (P51532 1448-1569): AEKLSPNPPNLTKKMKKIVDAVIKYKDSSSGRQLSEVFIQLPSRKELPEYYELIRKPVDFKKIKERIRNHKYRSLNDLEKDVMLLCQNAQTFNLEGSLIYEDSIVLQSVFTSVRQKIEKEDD
T2 sequence (P40337 54-213): as the sequence (P40337 54-213) above
T2 sequence (Q15369 17-112 partner limits assumed): as the sequence (Q15369 17-112 partner limits assumed) above
T2 sequence (Q15370 1-104 partner limits assumed): as the sequence (Q15370 1-104 partner limits assumed) above

A word on the Kd: it is the free concentration of one partner at which half of the binding sites on the other are occupied at equilibrium, for simple one-to-one binding. As for `Cc1ncsc1-c1ccc(CNC(=O)[C@@H]2C[C@@H](O)CN2C(=O)[C@@H](NC(=O)C2(F)CC2)C(C)(C)C)c(OCCOCCOCCOCCN2CCC(c3ccc4c(c3)n(C3CCCC3)c3nc(=O)c5c(Br)cccc5n43)CC2)c1` [compound 22], the Kd is 0.026 ± 0.002 µM in assay [1] (setting [2]); 0.0246 µM and 0.0239 µM and 0.028 µM in assay [1] (ternary, individual replicates); 1.1 ± 0.433 µM at SMARCA2^BD (SMARCA2BD, mean ± SD); 1.57 µM and 0.715 µM and 1.02 µM at SMARCA2^BD (individual replicates); 0.039 ± 0.016 µM on VCB complex (setting [3]); 0.0318 µM and 0.0629 µM and 0.0293 µM and 0.033 µM on VCB complex (binary, individual replicates). For the same compound, in assay [1], the alpha turned out to be 1.5.

Turning to `Cc1ncsc1-c1ccc([C@H](CCC(C)(C)CCN2CCC(c3ccc4c(c3)n(C3CCCC3)c3nc(=O)c5c(Br)cccc5n43)CC2)NC(=O)[C@@H]2C[C@@H](O)CN2C(=O)[C@@H](NC(=O)C2(F)CC2)C(C)(C)C)cc1` [compound 30], the dissociation constant Kd in assay [1] (setting [2]) was 0.045 ± 0.006 µM; in assay [1] (ternary, individual replicates), 0.0412 µM and 0.0418 µM and 0.0514 µM; on SMARCA2^BD (SMARCA2BD, mean ± SD) it was 0.325 ± 0.031 µM; on SMARCA2^BD (individual replicates) it was 0.29 µM and 0.351 µM and 0.333 µM; on VCB complex (setting [3]) it was 0.029 ± 0.008 µM; on VCB complex (binary, individual replicates) it was 0.0383 µM and 0.0255 µM and 0.0326 µM and 0.021 µM. The alpha in assay [1] is on record as 0.6.

With `Cc1ncsc1-c1ccc([C@H](COCCCN2CCC(c3ccc4c(c3)n(C3CCCC3)c3nc(=O)c5c(Br)cccc5n43)CC2)NC(=O)[C@@H]2C[C@@H](O)CN2C(=O)[C@@H](NC(=O)C2(F)CC2)C(C)(C)C)cc1` [compound 27], the dissociation constant (Kd) is 0.018 ± 0.001 µM in assay [1] (setting [2]); 0.0167 µM and 0.0175 µM and 0.0195 µM in assay [1] (ternary, individual replicates); 0.217 ± 0.03 µM on SMARCA2^BD (SMARCA2BD, mean ± SD); 0.244 µM and 0.185 µM and 0.221 µM on SMARCA2^BD (individual replicates); 0.012 ± 0.009 µM on VCB complex (setting [3]); 0.00851 µM and 0.0254 µM and 0.00656 µM and 0.009 µM on VCB complex (binary, individual replicates). Moreover, the alpha in assay [1] was 0.7.

With `Cc1ncsc1-c1ccc(CNC(=O)[C@@H]2C[C@@H](O)CN2C(=O)[C@@H](NC(=O)C2(F)CC2)C(C)(C)C)c(OCCOCCOCCN2CCC(c3ccc4c(c3)n(C3CCCC3)c3nc(=O)c5c(Br)cccc5n43)CC2)c1` [compound 21], the Kd in assay [1] (setting [2]) is 0.016 ± 0.011 µM; in assay [1] (ternary, individual replicates) it was 0.028 µM and 0.00774 µM and 0.013 µM; on SMARCA2^BD (SMARCA2BD, mean ± SD) it was 0.68 ± 0.121 µM; on SMARCA2^BD (individual replicates) it was 0.65 µM and 0.814 µM and 0.577 µM; on VCB complex (setting [3]), 0.021 ± 0.005 µM; at VCB complex (binary, individual replicates) it was 0.0199 µM and 0.027 µM and 0.0216 µM and 0.0152 µM. For the same compound, the alpha in assay [1] is 1.3.

Turning to `Cc1ncsc1-c1ccc(CNC(=O)[C@@H]2C[C@@H](O)CN2C(=O)[C@@H](NC(=O)C2(F)CC2)C(C)(C)C)c(OCCN2CCC(c3ccc4c(c3)n(C3CCCC3)c3nc(=O)c5c(Br)cccc5n43)CC2)c1` [compound 20], the Kd in assay [1] (setting [2]) was 0.067 ± 0.003 µM; in assay [1] (ternary, individual replicates), 0.0677 µM and 0.0693 µM and 0.0637 µM; at SMARCA2^BD (SMARCA2BD, mean ± SD), 0.104 ± 0.006 µM; at SMARCA2^BD (individual replicates) it was 0.103 µM and 0.0988 µM and 0.11 µM; at VCB complex (setting [3]), 0.009 ± 0.007 µM; on VCB complex (binary, individual replicates), 0.00664 µM and 0.0203 µM and 0.0051 µM and 0.00519 µM. Further, the alpha in assay [1] came out at 0.1.

On to `Cc1ncsc1-c1ccc([C@H](CC[C@@H](C)CCN2CCC(c3ccc4c(c3)n(C3CCCC3)c3nc(=O)c5c(Br)cccc5n43)CC2)NC(=O)[C@@H]2C[C@@H](O)CN2C(=O)[C@@H](NC(=O)C2(F)CC2)C(C)(C)C)cc1` [compound 29], for which the Kd in assay [1] (setting [2]) was 0.011 ± 0.001 µM; in assay [1] (ternary, individual replicates) it was 11.5 nM (2×) and 9.84 nM; on SMARCA2^BD (SMARCA2BD, mean ± SD) it was 0.255 ± 0.042 µM; at SMARCA2^BD (individual replicates), 0.304 µM and 0.227 µM and 0.235 µM; at VCB complex (setting [3]), 0.013 ± 0.007 µM; at VCB complex (binary, individual replicates), 0.0213 µM and 0.0182 µM and 0.00709 µM and 0.00827 µM and 0.00572 µM and 0.0148 µM. The alpha in assay [1] is 1.1.

In the case of `Cc1ncsc1-c1ccc([C@H](COCCN2CCC(c3ccc4c(c3)n(C3CCCC3)c3nc(=O)c5c(Br)cccc5n43)CC2)NC(=O)[C@@H]2C[C@@H](O)CN2C(=O)[C@@H](NC(=O)C2(N(C)C)CC2)C(C)(C)C)cc1` [compound 26], the dissociation constant Kd is 0.116 ± 0.016 µM in assay [1] (setting [2]); 0.105 µM and 0.109 µM and 0.135 µM in assay [1] (ternary, individual replicates); 0.118 ± 0.005 µM on SMARCA2^BD (SMARCA2BD, mean ± SD); 0.119 µM and 0.123 µM and 0.113 µM at SMARCA2^BD (individual replicates); 0.076 ± 0.046 µM at VCB complex (setting [3]); 0.0555 µM and 0.144 µM and 0.0501 µM and 0.0534 µM on VCB complex (binary, individual replicates). Besides, the alpha in assay [1] amounted to 0.7.
